Data as given in patent US9199962B2, “Substituted azaheterocycles for the treatment of cancer” (Merck Patent GmbH, priority 2011, dated 2015).

Target: T1, GST-FAK (N-terminal GST fusion with truncated human FAK (376-1052 (end) amino acids)) (Homo sapiens, UniProt Q05397)
T1 construct: truncated human FAK (376-1052 (end) amino acids)
Experiment: Biochemical enzyme assay for FAK activity (Caliper LC3000 mobility shift)
Conditions: Table 1; 100 uM ATP; read-out: FAK IC50
Procedure: 1. Biochemical Enzyme Assays for FAK Activity
The FAK assays described here are performed on two Caliper Life Sciences systems, the LC3000 and the EZ Reader II. These provide data on enzyme activity via measurement of the relative amounts of phosphorylated or unphosphorylated fluorescently labelled substrate peptide at the end of an enzymatic reaction. These different states of peptide are resolved by applying a potential difference across the sample. The presence of the charged phosphate group on the product (as opposed to the substrate) causes different peptide mobility between the two peptides. This is visualized by excitation of the fluorescent label on the substrate and product peptides and represented as peaks within the analysis software.
In order to measure inhibitor activity of FAK, inhibitors in the Caliper Life Sciences LC3000, a TTP Mosquito liquid handling instrument is used to place 0.25 ul of the appropriate concentration of inhibitor in 100% DMSO (for a dose response curve calculation) into each well of a 384-well plate. To this reaction components are added to a final volume of 25 ul: • 0.067 ng/ul GST-FAK (N-terminal GST fusion with truncated human FAK (376-1052 (end) amino acids)) • 100 uM ATP • 1 mM DTT • 1 mM MgCl2 • 1 uM substrate peptide (sequence FITC-KGWMEDYDYVHLQGKK-(CONH2)SEQ ID NO: 1)) • 1 mM FERM peptide (sequence NH2-GATQSFIIR-COOH (SEQ ID NO: 2)) • 100 mM HEPES pH 7.5 • 0.015% Brij-35
The reaction is incubated for 90 min at 25 C, and then stopped by the addition of 70 ul of Stop buffer (100 mM HEPES pH 7.5, 0.015% Brij-35, 10 mM EDTA).
The plate is read on a Caliper LC 3000 in an Off-Chip mobility shift assay format, using the following parameters for a 12-sipper chip: screening pressure—1.9 psi, upstream voltage—3000, downstream voltage—700. These conditions cause unphosphorylated substrate and phosphorylated product peptide to resolve as separate peaks allowing direct measurement of percentage of conversion of substrate to product. The percent conversion can be plotted against concentration of inhibitor to produce a sigmoid dose response curve, from which an IC50 can be calculated using XLFit for Microsoft Excel.

T1 sequence (Q05397 376-1052): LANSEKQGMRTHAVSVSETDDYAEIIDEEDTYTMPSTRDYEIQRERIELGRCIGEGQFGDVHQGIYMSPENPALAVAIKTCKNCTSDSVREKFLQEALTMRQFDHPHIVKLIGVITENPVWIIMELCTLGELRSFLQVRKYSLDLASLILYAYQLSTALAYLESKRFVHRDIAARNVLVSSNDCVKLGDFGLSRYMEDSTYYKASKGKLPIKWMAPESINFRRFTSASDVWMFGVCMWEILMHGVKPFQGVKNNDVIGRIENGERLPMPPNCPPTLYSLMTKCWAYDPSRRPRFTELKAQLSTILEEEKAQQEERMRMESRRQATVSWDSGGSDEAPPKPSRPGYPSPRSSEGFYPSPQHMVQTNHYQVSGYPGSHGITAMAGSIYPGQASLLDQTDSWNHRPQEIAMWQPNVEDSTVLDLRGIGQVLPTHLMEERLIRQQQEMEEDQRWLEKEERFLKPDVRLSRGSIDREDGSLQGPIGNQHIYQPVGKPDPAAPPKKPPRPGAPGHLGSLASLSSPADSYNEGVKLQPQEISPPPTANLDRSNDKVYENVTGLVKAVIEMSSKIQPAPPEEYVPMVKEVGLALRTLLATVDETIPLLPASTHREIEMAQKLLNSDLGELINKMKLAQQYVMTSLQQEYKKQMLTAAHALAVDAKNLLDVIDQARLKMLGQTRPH

Row | Structure (SMILES) | IC50 [nM]
1 | Clc1cncc(-c2nccc(NCC3CC3)n2)c1 [Compound 36, [2-(5-Chloro-pyridin-3-yl)-pyrimidin-4-yl]-cyclopropylmethyl-amine] | 1000 to 10000
2 | Clc1cncc(-c2nccc(NCC3CCCCC3)n2)c1 [Compound 37, [2-(5-Chloro-pyridin-3-yl)-pyrimidin-4-yl]-cyclohexylmethyl-amine] | 1000 to 10000
3 | Fc1ccccc1CNc1ccnc(-c2cncc(Cl)c2)n1 [Compound 38, [2-(5-Chloro-pyridin-3-yl)-pyrimidin-4-yl]-(2-fluoro-benzyl)-amine] | < 100
4 | Fc1ccc(CNc2ccnc(-c3cncc(Cl)c3)n2)cc1 [Compound 39, [2-(5-Chloro-pyridin-3-yl)-pyrimidin-4-yl]-(4-fluoro-benzyl)-amine] | 100 to 1000
5 | CC1(C)Cc2cccc(CNc3ccnc(-c4cncc(C(=O)N5CCOCC5)c4)n3)c2O1 [Compound 40, (5-{4-[(2,2-Dimethyl-2,3-dihydro-benzofuran-7-ylmethyl)-amino]-pyrimidin-2-yl}-pyridin-3-yl)-morpholin-4-yl-methanone] | > 10000

Same assay, conditions: Table 2; 100 uM ATP; read-out: FAK IC50

Row | Structure (SMILES) | IC50 [nM]
6 | NC(=O)CCNc1cc(NCc2ccc(F)cc2F)nc(-c2cncc(C(F)(F)F)c2)n1 [Compound 61, 3-[6-(2,4-Difluoro-benzylamino)-2-(5-trifluoromethyl-pyridin-3-yl)-pyrimidin-4-ylamino]-propionamide] | 100 to 1000
7 | Fc1ccc(CNc2cc(NC3CCNCC3)nc(-c3cncc(C(F)(F)F)c3)n2)c(F)c1 [Compound 66, N-(2,4-Difluoro-benzyl)-N′-piperidin-4-yl-2-(5-trifluoromethyl-pyridin-3-yl)-pyrimidine-4,6-diamine] | 100 to 1000
8 | OCC(Nc1ccnc(-c2cncc(C(F)(F)F)c2)n1)c1ccccc1 (stereo not drawn) [Compound 67, 2-Phenyl-2-[2-(5-trifluoromethyl-pyridin-3-yl)-pyrimidin-4-ylamino]-ethanol] | 100 to 1000
9 | CC(Nc1ccnc(-c2cncc(C(F)(F)F)c2)n1)c1ccc(F)cc1 (stereo not drawn) [Compound 68, [1-(4-Fluoro-phenyl)-ethyl]-[2-(5-trifluoromethyl-pyridin-3-yl)-pyrimidin-4-yl]-amine] | 100 to 1000
10 | CC(=O)NCCNC(=O)c1cc(NCc2ccc(F)cc2F)nc(-c2cncc(C(F)(F)F)c2)n1 [Compound 69, 6-(2,4-Difluoro-benzylamino)-2-(5-trifluoromethyl-pyridin-3-yl)-pyrimidine-4-carboxylic acid (2-acetylamino-ethyl)-amide] | < 100
11 | O=C(NCCc1cccnc1)c1cc(NCc2ccc(F)cc2F)nc(-c2cncc(C(F)(F)F)c2)n1 [Compound 70, 6-(2,4-Difluoro-benzylamino)-2-(5-trifluoromethyl-pyridin-3-yl)-pyrimidine-4-carboxylic acid (2-pyridin-3-yl-ethyl)-amide] | < 100
12 | O=C(NCCn1cccn1)c1cc(NCc2ccc(F)cc2F)nc(-c2cncc(C(F)(F)F)c2)n1 [Compound 71, 6-(2,4-Difluoro-benzylamino)-2-(5-trifluoromethyl-pyridin-3-yl)-pyrimidine-4-carboxylic acid (2-pyrazol-1-yl-ethyl)-amide] | < 100
13 | Cc1nc(CCNC(=O)c2cc(NCc3ccc(F)cc3F)nc(-c3cncc(C(F)(F)F)c3)n2)cs1 [Compound 73, 6-(2,4-Difluoro-benzylamino)-2-(5-trifluoromethyl-pyridin-3-yl)-pyrimidine-4-carboxylic acid [2-(2-methyl-thiazol-4-yl)-ethyl]-amide] | 100 to 1000
14 | CCc1noc(CCNC(=O)c2cc(NCc3ccc(F)cc3F)nc(-c3cncc(C(F)(F)F)c3)n2)n1 [Compound 74, 6-(2,4-Difluoro-benzylamino)-2-(5-trifluoromethyl-pyridin-3-yl)-pyrimidine-4-carboxylic acid [2-(3-ethyl-[1,2,4]oxadiazol-5-yl)-ethyl]-amide] | 100 to 1000
15 | O=C(NCCN1CCNC1=O)c1cc(NCc2ccc(F)cc2F)nc(-c2cncc(C(F)(F)F)c2)n1 [Compound 75, 6-(2,4-Difluoro-benzylamino)-2-(5-trifluoromethyl-pyridin-3-yl)-pyrimidine-4-carboxylic acid [2-(2-oxo-imidazolidin-1-yl)-ethyl]-amide] | 100 to 1000
16 | CNC(=O)[C@H](NC(=O)c1cc(NCc2ccc(F)cc2F)nc(-c2cncc(C(F)(F)F)c2)n1)C(C)C [Compound 76, 6-(2,4-Difluoro-benzylamino)-2-(5-trifluoromethyl-pyridin-3-yl)-pyrimidine-4-carboxylic acid ((R)-2-methyl-1-methylcarbamoyl-propyl)-amide] | 100 to 1000

Same assay, conditions: Table 3; 100 uM ATP; read-out: FAK IC50

Row | Structure (SMILES) | IC50 [nM]
17 | Nc1ncccc1-c1nccc(NCc2ccccc2F)n1 [Compound 78, 2-(2-Aminopyridin-3-yl)-N-(2-fluorobenzyl)pyrimidin-4-amine] | 100 to 1000
18 | Nc1ncccc1-c1nccc(NCc2cccc(F)c2)n1 [Compound 79, 2-(2-Aminopyridin-3-yl)-N-(3-fluorobenzyl)pyrimidin-4-amine] | > 10000
19 | Nc1ncccc1-c1nccc(NCc2ccc(F)cc2)n1 [Compound 80, 2-(2-Aminopyridin-3-yl)-N-(4-fluorobenzyl)pyrimidin-4-amine] | 1000 to 10000
20 | Nc1ncccc1-c1nccc(NCc2ccccc2)n1 [Compound 81, 2-(2-Aminopyridin-3-yl)-N-benzylpyrimidin-4-amine] | 1000 to 10000
21 | Cc1ccccc1CNc1ccnc(-c2cccnc2N)n1 [Compound 82, 2-(2-Aminopyridin-3-yl)-N-(2-methylbenzyl)pyrimidin-4-amine] | 1000 to 10000
22 | COc1ccccc1CNc1ccnc(-c2cccnc2N)n1 [Compound 83, 2-(2-Aminopyridin-3-yl)-N-(2-methoxybenzyl)pyrimidin-4-amine] | 1000 to 10000
23 | Nc1ncccc1-c1nccc(NCc2ccccc2OC(F)(F)F)n1 [Compound 84, 2-(2-Aminopyridin-3-yl)-N-[2-(trifluoromethoxy)benzyl]pyrimidin-4-amine] | 1000 to 10000
24 | Nc1ncccc1-c1nccc(NCc2cccc(F)c2F)n1 [Compound 85, 2-(2-Aminopyridin-3-yl)-N-(2,3-difluorobenzyl)pyrimidin-4-amine] | 1000 to 10000
25 | Nc1ncccc1-c1nccc(NCc2ccccc2Cl)n1 [Compound 86, 2-(2-Aminopyridin-3-yl)-N-(2-chlorobenzyl)pyrimidin-4-amine] | 100 to 1000
26 | CS(=O)(=O)c1ccccc1CNc1ccnc(-c2cccnc2N)n1 [Compound 87, 2-(2-Aminopyridin-3-yl)-N-[2-(methylsulfonyl)benzyl]pyrimidin-4-amine] | 1000 to 10000
27 | CN(c1ncccc1CNc1ccnc(-c2cccnc2N)n1)S(C)(=O)=O [Compound 88, N-[3-({[2-(2-Aminopyridin-3-yl)pyrimidin-4-yl]amino}methyl)pyridin-2-yl]-N-methylmethane-sulfonamide] | > 10000
28 | CS(=O)(=O)c1cccc(CNc2ccnc(-c3cccnc3N)n2)c1 [Compound 90, 2-(2-Aminopyridin-3-yl)-N-[3-(methylsulfonyl)benzyl]pyrimidin-4-amine] | 1000 to 10000
29 | CN(C)c1ccccc1CNc1ccnc(-c2cccnc2N)n1 [Compound 91, 2-(2-Aminopyridin-3-yl)-N-[2-(dimethylamino)benzyl]pyrimidin-4-amine] | 1000 to 10000
30 | Cc1ccc(CNc2ccnc(-c3cccnc3N)n2)cc1 [Compound 92, 2-(2-Aminopyridin-3-yl)-N-(4-methylbenzyl)pyrimidin-4-amine] | > 10000
31 | Fc1ccccc1CNc1ccnc(-c2cccnc2)n1 [Compound 93, N-(2-Fluorobenzyl)-2-pyridin-3-ylpyrimidin-4-amine] | 100 to 1000
32 | Nc1ccc(-c2nccc(NCc3ccccc3C(F)(F)F)n2)cn1 [Compound 94, 2-(6-Aminopyridin-3-yl)-N-[2-(trifluoromethyl)benzyl]pyrimidin-4-amine] | 1000 to 10000
33 | Cc1cccc(CNc2ccnc(-c3cccnc3N)n2)c1 [Compound 95, 2-(2-Aminopyridin-3-yl)-N-(3-methylbenzyl)pyrimidin-4-amine] | > 10000
34 | Nc1ncccc1-c1nccc(NCc2ccc(C(F)(F)F)cc2)n1 [Compound 96, 2-(2-Aminopyridin-3-yl)-N-[4-(trifluoromethyl)benzyl]pyrimidin-4-amine] | > 10000
35 | COc1ccc(CNc2ccnc(-c3cccnc3N)n2)cc1 [Compound 97, 2-(2-Aminopyridin-3-yl)-N-(4-methoxybenzyl)pyrimidin-4-amine] | > 10000
36 | CS(=O)(=O)c1ccc(CNc2ccnc(-c3cccnc3N)n2)cc1 [Compound 99, 2-(2-Aminopyridin-3-yl)-N-[4-(methylsulfonyl)benzyl]pyrimidin-4-amine] | > 10000
